Experimental data: US7320972B2, “4-Biarylyl-1-phenylazetidin-2-ones” (Microbia, Inc., priority 2003, dated 2008)

Tested on: cholesterol absorption (serum 3H-cholesterol)
Assay: In Vivo Assay of Hypolipidemic Agents using the Rat Cholesterol Absorption Model
Parameters: species or system Sprague-Dawley rats
Conditions: peroral; for inhibition in vivo at 1 mg/kg: po, serum 3H-cholesterol 3 h after cholesterol dose, vs vehicle control
Protocol: In Vivo Assay of Hypolipidemic Agents using the Rat Cholesterol Absorption Model. This model is based on models described by Burnett et al (2002), Bioorg. Med. Chem. Lett. 2002 Feb. 11;12(3):315-8 and J. Lipid Res. 1999 October;40(10):1747-57. Female Sprague-Dawley rats weighing 150-250 g are separated into groups of […] and fasted overnight. The animals (4-6/group) are dosed perorally with 300 μL test compounds in olive oil or suitable vehicle. Thirty minutes later, 3-5 microCuries ^3H-cholesterol per rat are delivered perorally in 300 μL olive oil. After three hours, 200 μL serum is collected, vortexed with scintillation fluid, and measured for radioactivity in a scintillation counter. Percent inhibition is defined as 100*(1−Ctest/Cctrl), where Ctest and Cctl refer to ^3H levels in serum for the test compound and for the vehicle only control, respectively. Percent inhibition values are reported for a fixed dose. The ED50 is the dose at which the half-maximal effect on serum ^3H levels is observed for a given test compound.
Representative compounds of the invention were tested in the Rat Cholesterol Absorption model above.

SMILES	inhibition in vivo at 1 mg/kg	other results
O=C1[C@H](CC[C@H](O)c2ccc(F)cc2)[C@@H](c2ccc(-c3ccc(O)cc3)s2)N1c1ccccc1 [Example 51, (3R,4S)-3-[(3S)-3-(4-Fluorophenyl)-3-hydroxypropyl]-4-[5-(4-hydroxyphenyl)-2-thienyl]-1-phenylazetidin-2-one]	39%	
O=C1[C@H](CC[C@H](O)c2ccc(F)cc2)[C@@H](c2ccc(-c3cccc([C@@H]4O[C@@H](CO)[C@H](O)[C@@H](O)[C@@H]4O)c3)cc2)N1c1ccc(F)cc1 [Example 113, (1S)-1,5-anhydro-1-(4′-{(2S,3R)-1-(4-fluorophenyl)-3-[(3S)-3-(4-fluorophenyl)-3-hydroxypropyl]-4-oxoazetidin-2-yl}biphenyl-3-yl)-L-glucitol]	67%	
O=C1[C@H](CC[C@H](O)c2ccc(F)cc2)[C@@H](c2ccc(-c3cccc([C@@H](O)[C@H]4OC(O)[C@H](O)[C@@H](O)[C@@H]4O)c3)cc2O)N1c1ccccc1 (stereo partly drawn) [Example 74, (6R)-6-C-(4′-{(2S,3R)-3-[(3S)-3-(4-Fluorophenyl)-3-hydroxypropyl]-4-oxo-1-phenylazetidin-2-yl}-3′-hydroxybiphenyl-3-yl)-D-glucopyranose]	67%	
COc1cccc(-c2ccc([C@@H]3[C@@H](CC[C@H](O)c4ccc(F)cc4)C(=O)N3c3ccc(F)cc3)cc2)c1 [Example 12, (3R,4S)-1-(4-fluorophenyl)-3-[(3S)-3-(4-fluorophenyl)-3-hydroxypropyl]-4-(3′-methoxybiphenyl-4-yl)azetidin-2-one]	70%	
O=C1[C@H](CC[C@H](O)c2ccc(F)cc2)[C@@H](c2ccc(-c3cccc(B(O)O)c3)cc2)N1c1ccccc1 [Example 59, (4′-{(2S,3R)-3-[(3S)-3-(4-Fluorophenyl)-3-hydroxypropyl]-4-oxo-1-phenylazetidin-2-yl}biphenyl-3-yl)boronic acid]	70%	
O=C(O)[C@@H]1O[C@H](Oc2cccc(-c3ccc([C@@H]4[C@@H](CC[C@H](O)c5ccc(F)cc5)C(=O)N4c4ccc(F)cc4)cc3)c2)[C@@H](O)[C@H](O)[C@H]1O [Example 20, 4′-{(2S,3R)-1-(4-fluorophenyl)-3-[(3S)-3-(4-fluorophenyl)-3-hydroxypropyl]-4-oxoazetidin-2-yl}biphenyl-3-yl β-L-glucopyranosiduronic Acid]	59%	
O=C1[C@H](CC[C@H](O)c2ccc(F)cc2)[C@@H](c2ccc(-c3cccc(OC[C@H]4OC(O)[C@H](O)[C@@H](O)[C@@H]4O)c3)cc2)N1c1ccc(F)cc1 (stereo partly drawn) [Example 76, 6-O-(4′-{(2S,3R)-1-(4-Fluorophenyl)-3-[(3S)-3-(4-fluorophenyl)-3-hydroxypropyl]-4-oxoazetidin-2-yl}biphenyl-3-yl)-D-glucopyranose]	56%	
Nc1ccc(-c2ccc([C@@H]3[C@@H](CC[C@H](O)c4ccc(F)cc4)C(=O)N3c3ccc(F)cc3)cc2)cc1 [Example 28, (3R,4S)-4-(4′-aminobiphenyl-4-yl)-1-(4-fluorophenyl)-3-[(3S)-3-(4-fluorophenyl)-3-hydroxypropyl]azetidin-2-one]	56%	
CCCOc1cccc(-c2ccc([C@@H]3[C@@H](CC[C@H](O)c4ccc(F)cc4)C(=O)N3c3ccc(F)cc3)cc2)c1 [Example 103, (3R,4S)-1-(4-fluorophenyl)-3-[(3S)-3-(4-fluorophenyl)-3-hydroxypropyl]-4-(3′-propoxybiphenyl-4-yl)azetidin-2-one]	21%	
O=C1[C@H](CC[C@H](O)c2ccc(F)cc2)[C@@H](c2ccc(-c3cccc(P(=O)(O)O)c3)cc2)N1c1ccccc1 [Example 56, (4′-{(2S,3R)-3-[(3S)-3-(4-Fluorophenyl)-3-hydroxypropyl]-4-oxo-1-phenylazetidin-2-yl}biphenyl-3-yl)phosphonic acid]	59%	
O=Cc1cccc(-c2ccc([C@@H]3[C@@H](CC[C@H](O)c4ccc(F)cc4)C(=O)N3c3ccc(F)cc3)cc2)c1 [Example 13, 4′-{(2S,3R)-1-(4-fluorophenyl)-3-[(3S)-3-(4-fluorophenyl)-3-hydroxypropyl]-4-oxoazetidin-2-yl}biphenyl-3-carbaldehyde]	70%	
Nc1cccc(-c2ccc([C@@H]3[C@@H](CC[C@H](O)c4ccc(F)cc4)C(=O)N3c3ccc(F)cc3)cc2)c1 [Example 86, (3R,4S)-4-(3′-aminobiphenyl-4-yl)-1-(4-fluorophenyl)-3-[(3S)-3-(4-fluorophenyl)-3-hydroxypropyl]azetidin-2-one]	35%	
CS(=O)(=O)c1cccc(-c2ccc([C@@H]3[C@@H](CC[C@H](O)c4ccc(F)cc4)C(=O)N3c3ccccc3)c(O)c2)c1 [Example 123, (3R,4S)-3-[(3S)-3-(4-fluorophenyl)-3-hydroxypropyl]-4-[3-hydroxy-3′-(methylsulfonyl)biphenyl-4-yl]-1-phenylazetidin-2-one]	72%	
O=C1[C@H](CC[C@H](O)c2ccc(F)cc2)[C@@H](c2ccc(-c3cccc(O[C@H]4O[C@@H](CO)[C@H](O)[C@@H](O)[C@@H]4O)c3)cc2)N1c1ccc(F)cc1 [Example 95, 4′-{(2S,3R)-1-(4-fluorophenyl)-3-[(3S)-3-(4-fluorophenyl)-3-hydroxypropyl]-4-oxoazetidin-2-yl}biphenyl-3-yl β-L-glucopyranoside]	57%	
O=C1[C@H](CC[C@H](O)c2ccc(F)cc2)[C@@H](c2ccc(-c3cccc(C(F)(F)F)c3)cc2)N1c1ccc(F)cc1 [Example 92, (3R,4S)-1-(4-fluorophenyl)-3-[(3S)-3-(4-fluorophenyl)-3-hydroxypropyl]-4-[3′-(trifluoromethyl)biphenyl-4-yl]azetidin-2-one]	17%	
O=C1[C@H](CC[C@H](O)c2ccc(F)cc2)[C@@H](c2ccc(-c3cccc([C@@H](O)[C@H]4OC(O)[C@H](O)[C@@H](O)[C@@H]4O)c3)cc2)N1c1ccccc1 (stereo partly drawn) [Example 72, (6R)-6-C-(4′-{(2S,3R)-3-[(3S)-3-(4-Fluorophenyl)-3-hydroxypropyl]-4-oxo-1-phenylazetidin-2-yl}biphenyl-3-yl)-D-glucopyranose]		% inhibition at 0.3 mg/kg (0.3 mg/kg (footnote 6), serum 3H-cholesterol vs vehicle control): 27^6%
O=C1[C@H](CC[C@H](O)c2ccc(F)cc2)[C@@H](c2ccc(-c3ccc4ccccc4c3)cc2)N1c1ccc(F)cc1 [Example 91, (3R,4S)-1-(4-fluorophenyl)-3-[(3S)-3-(4-fluorophenyl)-3-hydroxypropyl]-4-[4-(2-naphthyl)phenyl]azetidin-2-one]	56%	
O=C1[C@H](CC[C@H](O)c2ccc(F)cc2)[C@@H](c2ccc(-c3cc(O)cc(O)c3)cc2)N1c1ccc(F)cc1 [Example 114, (3R,4S)-4-(3′,5′-dihydroxybiphenyl-4-yl)-1-(4-fluorophenyl)-3-[(3S)-3-(4-fluorophenyl)-3-hydroxypropyl]azetidin-2-one]	72%	
O=C1[C@H](CC[C@H](O)c2ccc(F)cc2)[C@@H](c2ccc(-c3ccc4c(c3)OCCO4)cc2)N1c1ccc(F)cc1 [Example 87, (3R,4S)-4-[4-(2,3-dihydro-1,4-benzodioxin-6-yl)phenyl]-1-(4-fluorophenyl)-3-[(3S)-3-(4-fluorophenyl)-3-hydroxypropyl]azetidin-2-one]	59%	
O=C1[C@H](CC[C@H](O)c2ccc(F)cc2)[C@@H](c2ccc(-c3cccc(S(=O)(=O)O)c3)cc2)N1c1ccc(F)cc1 [Example 118, 4′-{(2S,3R)-1-(4-fluorophenyl)-3-[(3S)-3-(4-fluorophenyl)-3-hydroxypropyl]-4-oxoazetidin-2-yl}biphenyl-3-sulfonic Acid]	61%	
O=C1[C@H](CC[C@H](O)c2ccc(F)cc2)[C@@H](c2ccc(-c3cccc([C@H](O)[C@@H](O)[C@@H](O)[C@H](O)[C@@H](O)CO)c3)cc2O)N1c1ccccc1 [Example 75, (6S)-6-C-(4′-{(2S,3R)-3-[(3S)-3-(4-Fluorophenyl)-3-hydroxypropyl]-4-oxo-1-phenylazetidin-2-yl}-3′-hydroxybiphenyl-3-yl)-D-glucitol]	68%	
Cc1cccc(-c2ccc([C@@H]3[C@@H](CC[C@H](O)c4ccc(F)cc4)C(=O)N3c3ccc(F)cc3)cc2)c1 [Example 93, (3R,4S)-1-(4-fluorophenyl)-3-[(3S)-3-(4-fluorophenyl)-3-hydroxypropyl]-4-(3′-methylbiphenyl-4-yl)azetidin-2-one]	28%	
N#Cc1cccc(-c2ccc([C@@H]3[C@@H](CC[C@H](O)c4ccc(F)cc4)C(=O)N3c3ccc(F)cc3)cc2)c1 [Example 14, 4′-{(2S,3R)-1-(4-fluorophenyl)-3-[(3S)-3-(4-fluorophenyl)-3-hydroxypropyl]-4-oxoazetidin-2-yl}biphenyl-3-carbonitrile]		% inhibition at 5 mg/kg (5 mg/kg (footnote 3), serum 3H-cholesterol vs vehicle control): 32^3%
O=C1[C@H](CC[C@H](O)c2ccc(F)cc2)[C@@H](c2ccc(-c3cccc(P(=O)(O)O)c3)cc2)N1c1ccccc1 [Example 122, (4′-{(2S,3R)-3-[(3S)-3-(4-fluorophenyl)-3-hydroxypropyl]-4-oxo-1-phenylazetidin-2-yl}biphenyl-3-yl)phosphonic Acid]	67%	
O=C1[C@H](CC[C@H](O)c2ccc(F)cc2)[C@@H](c2ccc(-c3cccc(O)c3)cn2)N1c1ccccc1 [Example 49, (3R,4S)-3-[(3S)-3-(4-Fluorophenyl)-3-hydroxypropyl]-4-[5-(3-hydroxyphenyl)pyridin-2-yl]-1-phenylazetidin-2-one]	30%	
